According to PMC5564600 (Oncotarget, 2017):

Tests used:
Assay in all cases: biochemical
Type in all cases: binding
panel of 442 kinases [1] = target: T1, panel of 442 kinases (Homo sapiens, UniProt P00533); details: EGFR; for remaining activity at 1 µM: read-out: % of control at 1 µM
T1 construct: purchased Ambit Biosciences (scanMAXX KINOMEscan)

panel of 442 kinases [2] = target: T2, panel of 442 kinases (Homo sapiens, UniProt P07949, V804L); details: kinase RET(V804L); for remaining activity at 1 µM: read-out: RET(V804L) (% of control at 1 µM)
T2 construct: purchased Ambit Biosciences (scanMAXX KINOMEscan)

panel of 442 kinases [3] = target: T3, panel of 442 kinases (Homo sapiens, UniProt P11309); details: kinase PIM1; for remaining activity at 1 µM: read-out: % of control at 1 µM
T3 construct: purchased Ambit Biosciences (scanMAXX KINOMEscan)
T3 sequence (P11309 whole entry): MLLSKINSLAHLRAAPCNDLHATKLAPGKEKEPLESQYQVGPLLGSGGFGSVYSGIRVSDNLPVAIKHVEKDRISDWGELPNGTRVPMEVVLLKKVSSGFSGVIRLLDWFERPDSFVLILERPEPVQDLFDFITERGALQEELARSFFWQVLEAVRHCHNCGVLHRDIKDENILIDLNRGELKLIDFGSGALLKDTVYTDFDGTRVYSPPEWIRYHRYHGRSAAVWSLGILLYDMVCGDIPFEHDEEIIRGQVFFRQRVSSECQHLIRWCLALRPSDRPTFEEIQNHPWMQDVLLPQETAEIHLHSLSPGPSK

panel of 442 kinases [4] = target: T4, panel of 442 kinases (Homo sapiens, UniProt P32298); details: kinase GRK4; for remaining activity at 1 µM: read-out: % of control at 1 µM
T4 construct: purchased Ambit Biosciences (scanMAXX KINOMEscan)

panel of 442 kinases [5] = target: T5, panel of 442 kinases (Homo sapiens, UniProt P53350); details: kinase PLK1; for remaining activity at 1 µM: read-out: PLK1 (% of control at 1 µM)
T5 construct: purchased Ambit Biosciences (scanMAXX KINOMEscan)
T5 sequence (P53350 whole entry): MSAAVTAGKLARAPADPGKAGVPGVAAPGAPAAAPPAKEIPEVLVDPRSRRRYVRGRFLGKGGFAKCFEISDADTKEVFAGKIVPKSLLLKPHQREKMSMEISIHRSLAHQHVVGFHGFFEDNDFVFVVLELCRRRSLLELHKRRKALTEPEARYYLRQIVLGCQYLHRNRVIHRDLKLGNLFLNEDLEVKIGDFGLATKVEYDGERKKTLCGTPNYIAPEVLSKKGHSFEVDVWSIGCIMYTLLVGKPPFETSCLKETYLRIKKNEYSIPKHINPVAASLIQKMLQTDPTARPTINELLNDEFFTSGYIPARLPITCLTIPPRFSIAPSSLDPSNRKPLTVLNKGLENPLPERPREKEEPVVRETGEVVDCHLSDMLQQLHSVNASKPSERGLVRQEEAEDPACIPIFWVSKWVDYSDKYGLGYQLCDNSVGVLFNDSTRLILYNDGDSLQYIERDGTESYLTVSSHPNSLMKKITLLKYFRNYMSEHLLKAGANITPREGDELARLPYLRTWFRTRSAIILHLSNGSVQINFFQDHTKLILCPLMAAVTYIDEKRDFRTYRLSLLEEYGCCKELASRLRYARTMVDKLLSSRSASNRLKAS

panel of 442 kinases [6] = target: T6, panel of 442 kinases (Homo sapiens, UniProt P53671); details: kinase LIMK2; for remaining activity at 1 µM: read-out: % of control at 1 µM
T6 construct: purchased Ambit Biosciences (scanMAXX KINOMEscan)
T6 sequence (P53671 whole entry): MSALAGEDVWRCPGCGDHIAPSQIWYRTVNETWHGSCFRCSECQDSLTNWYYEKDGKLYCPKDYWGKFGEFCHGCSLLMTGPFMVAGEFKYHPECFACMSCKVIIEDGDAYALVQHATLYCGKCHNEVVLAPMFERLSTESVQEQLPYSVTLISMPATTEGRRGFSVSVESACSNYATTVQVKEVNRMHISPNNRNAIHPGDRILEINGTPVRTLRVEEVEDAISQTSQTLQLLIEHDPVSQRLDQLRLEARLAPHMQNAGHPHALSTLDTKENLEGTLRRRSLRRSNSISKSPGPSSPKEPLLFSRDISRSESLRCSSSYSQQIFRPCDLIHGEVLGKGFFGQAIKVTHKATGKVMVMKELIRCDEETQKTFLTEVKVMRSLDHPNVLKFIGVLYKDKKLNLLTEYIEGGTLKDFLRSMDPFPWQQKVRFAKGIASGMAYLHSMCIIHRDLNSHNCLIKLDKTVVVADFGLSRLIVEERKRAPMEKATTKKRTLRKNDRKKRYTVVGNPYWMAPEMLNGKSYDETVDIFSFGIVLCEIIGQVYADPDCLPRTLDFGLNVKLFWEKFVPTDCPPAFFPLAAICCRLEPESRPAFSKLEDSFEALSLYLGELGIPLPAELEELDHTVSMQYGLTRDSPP

panel of 442 kinases [7] = target: T7, panel of 442 kinases (Homo sapiens, UniProt Q15375); details: EPHA7; for remaining activity at 1 µM: read-out: % of control at 1 µM
T7 construct: purchased Ambit Biosciences (scanMAXX KINOMEscan)
T7 sequence (Q15375 28-998): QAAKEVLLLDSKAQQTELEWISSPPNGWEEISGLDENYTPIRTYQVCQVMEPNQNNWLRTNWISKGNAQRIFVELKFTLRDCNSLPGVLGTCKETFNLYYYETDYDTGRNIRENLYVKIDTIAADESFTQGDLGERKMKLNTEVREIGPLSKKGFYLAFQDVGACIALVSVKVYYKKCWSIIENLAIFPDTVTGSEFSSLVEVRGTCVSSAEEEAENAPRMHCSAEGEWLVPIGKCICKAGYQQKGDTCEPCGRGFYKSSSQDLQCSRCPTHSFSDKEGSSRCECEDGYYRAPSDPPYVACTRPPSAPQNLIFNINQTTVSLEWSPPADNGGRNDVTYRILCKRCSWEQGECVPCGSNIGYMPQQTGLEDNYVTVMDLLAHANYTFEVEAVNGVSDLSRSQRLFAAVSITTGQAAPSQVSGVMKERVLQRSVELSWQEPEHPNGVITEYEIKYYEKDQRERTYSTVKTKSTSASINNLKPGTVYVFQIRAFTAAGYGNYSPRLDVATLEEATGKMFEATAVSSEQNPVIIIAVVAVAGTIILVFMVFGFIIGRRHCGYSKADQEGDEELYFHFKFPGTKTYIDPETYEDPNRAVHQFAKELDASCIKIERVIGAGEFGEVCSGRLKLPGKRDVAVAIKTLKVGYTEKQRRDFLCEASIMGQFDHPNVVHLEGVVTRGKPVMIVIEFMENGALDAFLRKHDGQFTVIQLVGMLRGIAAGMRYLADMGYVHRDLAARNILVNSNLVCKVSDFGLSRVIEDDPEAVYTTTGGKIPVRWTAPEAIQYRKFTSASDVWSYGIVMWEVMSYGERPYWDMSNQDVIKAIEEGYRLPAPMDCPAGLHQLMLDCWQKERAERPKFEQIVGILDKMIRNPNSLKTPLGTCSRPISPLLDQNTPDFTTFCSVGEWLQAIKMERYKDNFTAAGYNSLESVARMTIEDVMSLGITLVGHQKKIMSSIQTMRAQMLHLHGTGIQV

panel of 442 kinases [8] = target: T8, panel of 442 kinases (Homo sapiens, UniProt Q7L7X3); details: kinase TAOK1; for remaining activity at 1 µM: read-out: TAOK1 (% of control at 1 µM)
T8 construct: purchased Ambit Biosciences (scanMAXX KINOMEscan)
T8 sequence (Q7L7X3 1-1001): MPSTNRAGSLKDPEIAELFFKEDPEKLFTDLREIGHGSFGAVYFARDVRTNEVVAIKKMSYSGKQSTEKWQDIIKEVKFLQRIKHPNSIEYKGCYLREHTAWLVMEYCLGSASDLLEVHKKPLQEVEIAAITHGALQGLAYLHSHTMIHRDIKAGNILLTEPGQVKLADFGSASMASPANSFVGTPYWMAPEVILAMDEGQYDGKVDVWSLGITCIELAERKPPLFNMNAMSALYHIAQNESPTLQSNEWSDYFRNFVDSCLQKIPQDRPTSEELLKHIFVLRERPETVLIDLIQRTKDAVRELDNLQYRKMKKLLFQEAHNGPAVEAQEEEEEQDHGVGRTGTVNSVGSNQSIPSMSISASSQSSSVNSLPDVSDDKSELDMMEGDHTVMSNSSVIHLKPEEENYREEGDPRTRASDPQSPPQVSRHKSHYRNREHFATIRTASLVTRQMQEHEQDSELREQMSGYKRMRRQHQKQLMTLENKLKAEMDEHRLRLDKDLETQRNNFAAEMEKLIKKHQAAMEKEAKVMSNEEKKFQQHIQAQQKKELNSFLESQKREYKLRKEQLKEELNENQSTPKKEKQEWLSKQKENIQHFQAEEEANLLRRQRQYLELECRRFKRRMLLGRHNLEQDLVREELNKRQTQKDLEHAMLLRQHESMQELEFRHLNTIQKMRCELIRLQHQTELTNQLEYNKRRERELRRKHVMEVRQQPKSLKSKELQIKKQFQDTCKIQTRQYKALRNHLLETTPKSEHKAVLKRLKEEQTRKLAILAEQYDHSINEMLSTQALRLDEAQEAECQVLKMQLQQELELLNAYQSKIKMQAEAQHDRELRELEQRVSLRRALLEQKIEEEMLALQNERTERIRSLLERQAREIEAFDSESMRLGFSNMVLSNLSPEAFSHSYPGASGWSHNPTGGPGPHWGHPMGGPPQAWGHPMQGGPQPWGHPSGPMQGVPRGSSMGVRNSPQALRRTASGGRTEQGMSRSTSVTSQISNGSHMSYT

panel of 442 kinases [9] = target: T9, panel of 442 kinases (Homo sapiens, UniProt Q9C098); details: DCAMKL3; for remaining activity at 1 µM: read-out: % of control at 1 µM
T9 construct: purchased Ambit Biosciences (scanMAXX KINOMEscan)
T9 sequence (Q9C098 whole entry): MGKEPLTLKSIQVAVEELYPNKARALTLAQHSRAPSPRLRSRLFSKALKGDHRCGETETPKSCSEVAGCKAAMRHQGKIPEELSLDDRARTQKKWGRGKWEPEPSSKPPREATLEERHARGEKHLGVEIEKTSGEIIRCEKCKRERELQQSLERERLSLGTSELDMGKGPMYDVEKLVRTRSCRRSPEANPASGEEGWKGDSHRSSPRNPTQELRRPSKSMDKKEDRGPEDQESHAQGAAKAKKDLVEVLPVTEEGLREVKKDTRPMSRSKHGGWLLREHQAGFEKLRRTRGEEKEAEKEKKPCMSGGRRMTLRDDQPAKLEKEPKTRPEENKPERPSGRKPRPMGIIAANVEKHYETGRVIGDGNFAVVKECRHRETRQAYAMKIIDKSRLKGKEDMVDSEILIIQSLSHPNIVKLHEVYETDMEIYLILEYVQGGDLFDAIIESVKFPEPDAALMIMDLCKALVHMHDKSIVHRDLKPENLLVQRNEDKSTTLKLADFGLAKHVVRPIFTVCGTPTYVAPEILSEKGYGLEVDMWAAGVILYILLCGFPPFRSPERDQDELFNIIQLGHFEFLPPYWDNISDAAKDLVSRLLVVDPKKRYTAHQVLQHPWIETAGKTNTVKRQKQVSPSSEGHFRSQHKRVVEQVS

panel of 442 kinases [10] = target: T10, panel of 442 kinases (Homo sapiens, UniProt Q9HCP0); details: CSNK1G1; for remaining activity at 1 µM: read-out: % of control at 1 µM
T10 construct: purchased Ambit Biosciences (scanMAXX KINOMEscan)
T10 sequence (Q9HCP0 whole entry): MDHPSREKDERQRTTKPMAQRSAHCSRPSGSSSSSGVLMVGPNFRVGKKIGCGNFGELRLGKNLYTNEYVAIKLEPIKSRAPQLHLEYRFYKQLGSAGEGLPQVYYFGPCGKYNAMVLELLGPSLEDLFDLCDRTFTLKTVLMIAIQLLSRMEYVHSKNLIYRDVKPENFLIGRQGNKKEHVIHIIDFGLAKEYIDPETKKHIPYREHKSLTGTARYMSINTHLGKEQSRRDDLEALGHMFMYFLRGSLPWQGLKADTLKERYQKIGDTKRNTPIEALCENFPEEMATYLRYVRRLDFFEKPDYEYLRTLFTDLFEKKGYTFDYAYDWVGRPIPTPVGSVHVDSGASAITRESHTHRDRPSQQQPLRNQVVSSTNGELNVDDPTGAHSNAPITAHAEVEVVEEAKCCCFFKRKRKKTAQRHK

panel of 442 kinases [11] = target: T11, panel of 442 kinases (Homo sapiens, UniProt Q9UIK4); details: DAPK2; for remaining activity at 1 µM: read-out: % of control at 1 µM
T11 construct: purchased Ambit Biosciences (scanMAXX KINOMEscan)
T11 sequence (Q9UIK4 whole entry): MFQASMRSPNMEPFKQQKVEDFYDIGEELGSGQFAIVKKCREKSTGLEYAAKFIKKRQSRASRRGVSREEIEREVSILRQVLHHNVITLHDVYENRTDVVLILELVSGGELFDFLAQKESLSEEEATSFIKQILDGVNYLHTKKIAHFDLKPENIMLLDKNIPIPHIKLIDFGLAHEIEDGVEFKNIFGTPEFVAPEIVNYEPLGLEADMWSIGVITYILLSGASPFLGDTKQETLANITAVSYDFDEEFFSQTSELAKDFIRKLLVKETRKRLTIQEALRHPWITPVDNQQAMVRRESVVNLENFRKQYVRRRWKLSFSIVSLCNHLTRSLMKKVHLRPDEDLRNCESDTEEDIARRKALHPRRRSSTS

panel of 442 kinases [12] = target: T12, panel of 442 kinases (Homo sapiens, UniProt Q9Y4K4); details: kinase MAP4K5; for remaining activity at 1 µM: read-out: % of control at 1 µM
T12 construct: purchased Ambit Biosciences (scanMAXX KINOMEscan)
T12 sequence (Q9Y4K4 whole entry): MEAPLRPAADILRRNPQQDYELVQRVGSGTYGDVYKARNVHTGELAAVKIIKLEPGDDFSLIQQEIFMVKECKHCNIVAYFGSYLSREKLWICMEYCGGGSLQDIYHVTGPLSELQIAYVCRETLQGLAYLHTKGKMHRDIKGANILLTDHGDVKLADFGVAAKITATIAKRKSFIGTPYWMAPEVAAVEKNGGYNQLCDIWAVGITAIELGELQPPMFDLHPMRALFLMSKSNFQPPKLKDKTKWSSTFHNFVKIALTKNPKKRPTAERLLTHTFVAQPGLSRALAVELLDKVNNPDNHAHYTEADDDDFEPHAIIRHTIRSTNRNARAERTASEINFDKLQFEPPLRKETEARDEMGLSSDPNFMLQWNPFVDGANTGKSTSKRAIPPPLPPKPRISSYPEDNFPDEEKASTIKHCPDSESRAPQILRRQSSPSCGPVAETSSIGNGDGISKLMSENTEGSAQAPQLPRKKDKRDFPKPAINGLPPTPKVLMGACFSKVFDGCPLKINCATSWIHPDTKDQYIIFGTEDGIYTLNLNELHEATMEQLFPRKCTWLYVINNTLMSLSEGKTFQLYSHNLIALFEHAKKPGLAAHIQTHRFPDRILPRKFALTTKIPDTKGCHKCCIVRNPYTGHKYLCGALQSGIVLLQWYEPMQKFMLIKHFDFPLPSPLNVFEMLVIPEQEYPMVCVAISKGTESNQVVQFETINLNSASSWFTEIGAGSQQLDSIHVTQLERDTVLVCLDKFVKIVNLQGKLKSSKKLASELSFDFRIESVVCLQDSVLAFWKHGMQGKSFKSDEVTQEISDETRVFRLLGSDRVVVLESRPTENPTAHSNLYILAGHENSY

[13] = 10 µM, read-out: % of control at 10 µM

| SMILES | remaining activity at 1 µM (panel of 442 kinases [1]) | remaining activity at 1 µM (panel of 442 kinases [2]) | remaining activity at 1 µM (panel of 442 kinases [3]) | remaining activity at 1 µM (panel of 442 kinases [4]) | remaining activity at 1 µM (panel of 442 kinases [5]) | remaining activity at 1 µM (panel of 442 kinases [6]) | remaining activity at 1 µM (panel of 442 kinases [7]) | remaining activity at 1 µM (panel of 442 kinases [8]) | remaining activity at 1 µM (panel of 442 kinases [9]) | remaining activity at 1 µM (panel of 442 kinases [10]) | remaining activity at 1 µM (panel of 442 kinases [11]) | remaining activity at 1 µM (panel of 442 kinases [12]) | also measured |
| --- | --- | --- | --- | --- | --- | --- | --- | --- | --- | --- | --- | --- | --- |
| Nc1cc(C(F)(F)F)c(-c2cc(N3CCOCC3)nc(N3CCOCC3)n2)cn1 [Buparlisib] | 83% | 100% | 87% | 100% | 65% | 100% | 100% | 86% | 100% | 95% | 100% | 96% | remaining activity at 10 µM (panel of 442 kinases [1]; [13]): 100%; remaining activity at 10 µM (panel of 442 kinases [2]; 10 µM, read-out: RET(V804L) (% of control at 10 µM)): 100%; remaining activity at 10 µM (panel of 442 kinases [3]; [13]): 100%; remaining activity at 10 µM (panel of 442 kinases [4]; [13]): 100%; remaining activity at 10 µM (panel of 442 kinases [5]; 10 µM, read-out: PLK1 (% of control at 10 µM)): 84%; remaining activity at 10 µM (panel of 442 kinases [6]; [13]): 100%; remaining activity at 10 µM (panel of 442 kinases [7]; [13]): 100%; remaining activity at 10 µM (panel of 442 kinases [8]; 10 µM, read-out: TAOK1 (% of control at 10 µM)): 82%; remaining activity at 10 µM (panel of 442 kinases [9]; [13]): 100%; remaining activity at 10 µM (panel of 442 kinases [10]; [13]): 95%; remaining activity at 10 µM (panel of 442 kinases [11]; [13]): 100%; remaining activity at 10 µM (panel of 442 kinases [12]; [13]): 100% |
| COc1ncc(-c2ccc3nccc(-c4ccnnc4)c3c2)cc1NS(=O)(=O)c1ccc(F)cc1F [Omipalisib] | 86% | 99% | 100% | 100% | 97% | 89% | 100% | 100% | 100% | 100% | 100% | 100% | – |
| FC(F)c1nc2ccccc2n1-c1nc(N2CCOCC2)nc(N2CCOCC2)n1 [ZSTK474, 2-(difluoromethyl)-1-[4,6-di(4-morpholinyl)-1,3,5-triazin-2-yl]-1H-benzimidazole] | 94% | 93% | 100% | 100% | 62% | 100% | 100% | 74% | 100% | 81% | 100% | 99% | – |
| Cn1c(=O)n(-c2ccc(C(C)(C)C#N)cc2)c2c3cc(-c4cnc5ccccc5c4)ccc3ncc21 [Dactolisib, 2-methyl-2-[4-(3-methyl-2-oxo-8-quinolin-3-yl-2,3-dihydroimidazo[4,5-c]quinolin-1-yl)-phenyl] propionitrile] | 80% | 99% | 100% | 97% | 93% | 91% | 100% | 70% | 100% | 67% | 97% | 55% | – |
